Measured values reported in PubChem BioAssay (NCI).
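A five-concentration, 48-hour dose response in 96-well plates underlies each endpoint, interpolated linearly between surrounding concentrations. Here, GI50 denotes the concentration required for 50% inhibition of growth. TGI: total growth inhibition.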

How the values were obtained:
Experiment in all cases: DTP human tumour cell line panel, 48 h
[1] = tested on: BT-549 breast
[2] = tested on: MCF7 breast
[3] = tested on: CAKI-1 renal
[4] = tested on: RPMI-8226 leukemia
[5] = tested on: SNB-75 CNS
[6] = tested on: NCI/ADR-RES ovarian
[7] = tested on: PC-3 prostate
[8] = tested on: HS 578T breast
[9] = tested on: MDA-MB-231 breast
[10] = tested on: ACHN renal

Compound: O=c1ccc2nc(-c3ccccc3)nn(-c3ccccn3)c-2c1
- GI50 [1]: 20.8 µM
- TGI [1]: 56.8 µM
- GI50 [2]: 2130 nM
- TGI [2]: 5.88 µM
- GI50 [3]: 1500 nM
- TGI [3]: 2.84 µM
- GI50 [4]: 5.32 µM
- TGI [4]: 63.1 µM
- GI50 [5]: 13.2 µM
- TGI [5]: 26 µM
- GI50 [6]: 19.6 µM
- TGI [6]: 67.1 µM
- GI50 [7]: 13.2 µM
- TGI [7]: 35.7 µM
- GI50 [8]: 23.4 µM
- TGI [8]: 98.8 µM
- GI50 [9]: 9.87 µM
- TGI [9]: 29.5 µM
- GI50 [10]: 1700 nM
- TGI [10]: 3.17 µM

Compound: CC(C)c1cc(CN(C)C)c(O)c(C(C)(C)C)c1
- TGI [1]: > 100 µM
- TGI [2]: 30.1 µM
- TGI [3]: 53.8 µM
- TGI [4]: 32.3 µM
- TGI [6]: > 100 µM
- TGI [7]: 56.7 µM
- TGI [8]: > 100 µM
- TGI [9]: > 100 µM
- TGI [10]: 32.3 µM

Compound: COC(=O)Nc1nc2cc(OC)c(OC)cc2c(=O)[nH]1
- TGI [1]: > 100 µM
- TGI [2]: > 100 µM
- TGI [3]: > 100 µM
- TGI [5]: 43.6 µM
- TGI [6]: > 100 µM
- TGI [7]: 71 µM
- TGI [8]: > 100 µM
- TGI [9]: > 100 µM
- TGI [10]: > 100 µM

Compound: N=C(c1ccc2ccccc2c1)c1ccccc1Cc1ccccc1
- TGI [1]: > 100 µM
- TGI [2]: > 100 µM
- TGI [3]: > 100 µM
- TGI [4]: > 100 µM
- TGI [6]: > 100 µM
- TGI [7]: > 100 µM
- TGI [9]: > 100 µM
- TGI [10]: > 100 µM

Compound: NC(=O)C(N)=O
- TGI [4]: > 100 µM
- TGI [10]: > 100 µM

Compound: Nc1nc(N)c2c(n1)NC(=O)c1c(c3ccccc3n1Cc1ccc(Cl)cc1)C2
- TGI [1]: 49.2 µM
- TGI [2]: 88.5 µM
- TGI [3]: 34.5 µM
- TGI [5]: 69.2 µM
- TGI [6]: 85.6 µM
- TGI [7]: > 100 µM
- TGI [8]: > 100 µM

Compound: CC(C)(C)N1C(C(=O)c2ccccc2)C1c1ccccc1 (centres undefined)
- TGI [4]: > 100 µM
- TGI [5]: > 100 µM

Compound: O=C(CSc1nc2ccccc2s1)c1sc2sc3ccccc3[n+]2c1[O-]
- TGI [1]: > 100 µM
- TGI [2]: > 100 µM
- TGI [3]: > 100 µM
- TGI [4]: > 100 µM
- TGI [6]: > 100 µM
- TGI [7]: > 100 µM
- TGI [8]: > 100 µM
- TGI [9]: > 100 µM
- TGI [10]: > 100 µM

Compound: O=C1c2ccccc2C(=O)c2c(Nc3ccc4c5c(cccc35)C(=O)c3ccccc3-4)cccc21
- TGI [1]: > 100 µM
- TGI [3]: > 100 µM
- TGI [5]: > 100 µM
- TGI [6]: > 100 µM
- TGI [7]: > 100 µM
- TGI [8]: > 100 µM
- TGI [9]: > 100 µM
- TGI [10]: > 100 µM

Compound: Nc1c2c(=O)[nH]c(=O)c2c(N)c2c(=O)c3ccccc3c(=O)c12
- TGI [1]: 3.71 µM
- TGI [2]: 2.72 µM
- TGI [3]: 22.9 µM
- TGI [4]: 8.53 µM
- TGI [6]: 5.9 µM
- TGI [7]: > 36.6 µM
- TGI [8]: > 25.9 µM
- TGI [9]: > 29.5 µM
- TGI [10]: 9.79 µM

Compound: CC(C)(C)OC(=O)c1cnc(Cl)cn1
- TGI [1]: > 100 µM
- TGI [2]: > 100 µM
- TGI [3]: 16.6 µM
- TGI [4]: > 100 µM
- TGI [5]: > 100 µM
- TGI [6]: > 100 µM
- TGI [7]: > 100 µM
- TGI [8]: > 100 µM
- TGI [9]: > 100 µM
- TGI [10]: 99.6 µM

Compound: C=CC[N+]12CN3CN(CN(C3)C1)C2
- TGI [1]: 61.3 µM
- TGI [2]: > 100 µM
- TGI [3]: 37.1 µM
- TGI [4]: 39 µM
- TGI [5]: 48.1 µM
- TGI [6]: 62.7 µM
- TGI [7]: > 100 µM
- TGI [8]: > 100 µM
- TGI [9]: 91.3 µM
- TGI [10]: 46 µM

Compound: C#CCOc1c(C(=O)OCC)c(=O)n(C)c2ccccc12
- TGI [3]: > 100 µM
- TGI [4]: > 100 µM
- TGI [5]: > 100 µM
- TGI [10]: > 100 µM

Compound: COc1ccc(C[C@H](N)C(=O)NC2C(CO)OC(n3cnc4c(N(C)C)ncnc43)C2O)cc1 (some centres undefined)
- TGI [4]: 1.3 µM
- TGI [5]: 0.744 µM
